pIC50: −log10 of the molar value.
Target: T1, Human complement C1s enzyme (Homo sapiens, UniProt P09871)
T1 construct: purified from human serum, Complement Technology, Inc; purchased Complement Technology, Inc; host or cells: human serum (plasma-derived native protein)
T1 sequence (P09871 438-688 limits assumed): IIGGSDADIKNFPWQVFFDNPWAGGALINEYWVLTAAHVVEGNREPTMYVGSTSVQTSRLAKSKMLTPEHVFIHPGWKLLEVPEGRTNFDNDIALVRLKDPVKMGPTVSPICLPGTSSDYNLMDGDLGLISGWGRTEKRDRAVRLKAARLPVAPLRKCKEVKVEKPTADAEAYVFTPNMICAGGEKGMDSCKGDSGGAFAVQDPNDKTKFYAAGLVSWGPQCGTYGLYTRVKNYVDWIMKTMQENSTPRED
T1 sequence (P09871 16-437 partner limits assumed): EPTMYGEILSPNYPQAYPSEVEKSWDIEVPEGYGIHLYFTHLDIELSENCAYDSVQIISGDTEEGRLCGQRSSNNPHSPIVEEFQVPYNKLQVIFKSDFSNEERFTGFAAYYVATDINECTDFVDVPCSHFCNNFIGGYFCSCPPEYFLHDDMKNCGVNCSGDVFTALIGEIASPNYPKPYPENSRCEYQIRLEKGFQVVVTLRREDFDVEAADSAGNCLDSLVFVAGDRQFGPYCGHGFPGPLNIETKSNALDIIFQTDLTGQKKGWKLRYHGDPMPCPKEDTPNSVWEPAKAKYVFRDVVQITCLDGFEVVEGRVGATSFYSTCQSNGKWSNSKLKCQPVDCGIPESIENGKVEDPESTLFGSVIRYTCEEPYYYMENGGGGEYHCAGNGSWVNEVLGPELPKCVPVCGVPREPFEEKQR
Assay: Human C1s enzyme assay
Format: biochemical
Conditions: human complement C1s enzyme 1.16 nM, substrate Z-L-Lys-SBzl, A405; read-out: IC50 (Stars)
How it was run: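 Serum-purified human C1s (1.16 nM final) preincubated 5 min at room temperature with compound in 50 mM Tris, 1 M NaCl, pH 7.5. Z-L-Lys-SBzl and DTNB added at 100 μM each; A405 recorded every 30 s. IC50 from nonlinear regression of reaction rates versus compound concentration.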

Row | SMILES | pIC50
1 | C[C@@H](Nc1cnc(-c2ccccc2)n(CC(=O)NCc2cc3cnccc3[nH]2)c1=O)c1coc(-c2ccccc2)n1 [Compound 347, (R)-N-((1H-pyrrolo[3,2-c]pyridin-2-yl)methyl)-2-(6-oxo-2-phenyl-5-((1-(2-phenyloxa-zol-4-yl)ethyl)amino)pyrimi-din-1(6H)-yl)acetamide] | > 7.00
2 | C[C@@H](Nc1ncc(-c2ccccc2)n(CC(=O)NCc2cc3cnccc3[nH]2)c1=O)c1ccc2oc3ccccc3c2c1 [Compound 348, (R)-N-((1H-pyrrolo[3,2-c]pyridin-2-yl)methyl)-2-(3-((1-(dibenzo[b,d]furan-2-yl)ethyl)-amino)-2-oxo-6-phenylpyr-azin-1(2H)-yl)acetamide] | > 7.00
3 | Cc1cnc(N[C@H](C)c2ccc3oc4ccccc4c3c2)c(=O)n1CC(=O)NCc1cc2cnccc2[nH]1 [Compound 349, (R)-N-((1H-pyrrolo[3,2-c]pyridin-2-yl)methyl)-2-(3-((1-(dibenzo[b,d]furan-2-yl)ethyl)-amino)-6-methyl-2-oxopyr-azin-1(2H)-yl)acetamide] | > 7.00
4 | C[C@@H](Nc1cnc(-c2ccccc2F)n(CC(=O)NCc2cc3cnccc3[nH]2)c1=O)c1ccc2c(c1)oc1ccccc12 [Compound 350, (R)—N-((1H-pyrrolo[3,2-c]pyridine-2-yl)methyl)-2-(5-((1-(dibenzo[b,d]furan-3-yl)ethyl)amino)-2-(2-fluorophenyl)-6-oxopyrimidin-1(6H)-yl)acetamide] | > 7.00
5 | C[C@@H]1CN(c2ncc(N[C@H](C)c3ccc4oc5ccccc5c4c3)c(=O)n2CC(=O)NCc2cc3cnccc3[nH]2)C[C@@H](C)O1 [Compound 355, N-((1H-pyrrolo[3,2-c]pyridin-2-yl)methyl)-2-(5-(((R)-1-(dibenzo[b,d]furan-2-yl)ethyl)-amino)-2-((2R,6R)-2,6-dimeth-ylmorpholino)-6-oxopyrimidin-1(6H)-yl)acetamide] | 6.00 to 7.00
6 | Cc1ccccc1-c1ncc(N[C@H](C)c2ccc3oc4ccccc4c3c2)c(=O)n1CC(=O)NCc1cc2cnccc2[nH]1 [Compound 356, 2-[5-[[(1R)-1-dibenzofuran-2-ylethyl]amino]-2-(o-tolyl)-6-oxo-pyrimidin-1-yl]-N-(1H-pyrrolo[3,2-c]pyridine-2-ylmethyl)acetamide] | < 6.00
7 | C[C@@H](Nc1cnc(-c2cncs2)n(CC(=O)NCc2cc3cnccc3[nH]2)c1=O)c1ccc2oc3ccccc3c2c1 [Compound 358, (R)-N-((1H-pyrrolo[3,2-c]pyridin-2-yl)methyl)-2-(5-((1-(dibenzo[b,d]furan-2-yl)ethyl)-amino)-6-oxo-2-(thiazol-5-yl)-pyrimidin-1(6H)-yl)acetamide] | > 7.00
8 | C[C@@H](Nc1cnc(-c2ccccc2)n(CC(=O)NCc2cc3cnccc3[nH]2)c1=O)c1ccc2c(c1)-c1ccccc1C2(F)F [Compound 359, (R)-N-((1H-pyrrolo[3,2-c]pyridin-2-yl)methyl)-2-(5-((1-(9,9-difluoro-9H-fluoren-3-yl)-ethyl)amino)-6-oxo-2-phenyl-pyrimidin-1(6H)-yl)acetamide] | > 7.00
9 | C[C@@H](Nc1cnc(-c2cn[nH]c2)n(CC(=O)NCc2cc3cnccc3[nH]2)c1=O)c1ccc2oc3ccccc3c2c1 [Compound 360, (R)—N-((1H-pyrrolo[3,2-c]pyridin-2-yl)methyl)-2-(5-((1-(dibenzo[b,d]furan-2-yl)ethyl)amino)-6-oxo-2-(1H-pyrazol-4-yl)pyrimidin-1(6H)-yl)acetamide] | > 7.00
10 | C[C@@H](Nc1cnc(N2CCCCC2)n(CC(=O)NCc2cc3cnccc3[nH]2)c1=O)c1ccc2oc3ccccc3c2c1 [Compound 361, (R)-N-((1H-pyrrolo[3,2-c]pyridin-2-yl)methyl)-2-(5-((1-(dibenzo[b,d]furan-2-yl)ethyl)-amino)-6-oxo-2-(piperidin-1-yl)pyrimidin-1(6H)-yl)acet-amide] | > 7.00
11 | C[C@@H](Nc1cncn(CC(=O)NCc2cc3cnccc3[nH]2)c1=O)c1coc(-c2ccccc2)n1 [Compound 362, (R)-N-((1H-pyrrolo[3,2-c]pyridin-2-yl)methyl)-2-(6-oxo-5-((1-(2-phenyloxazol-4-yl)-ethyl)amino)pyrimidin-1(6H)-yl)acetamide] | 6.00 to 7.00
12 | COCc1ncc(N[C@H](C)c2ccc3oc4ccccc4c3c2)c(=O)n1CC(=O)NCc1cc2cnccc2[nH]1 [Compound 365, (R)—N-((1H-pyrrolo[3,2-c]pyridine-2-yl)methyl)-2-(5-((1-(dibenzo[b,d]furan-2-yl)ethyl)amino)-2-(methoxymethyl)-6-oxopyrimidin-1(6H)-yl)acetamide] | 6.00 to 7.00
13 | C[C@@H](Nc1cn(C)c(=O)n(CC(=O)NCc2cc3cnccc3[nH]2)c1=O)c1ccc2oc3ccccc3c2c1 [Compound 366, (R)—N-((1H-pyrrolo[3,2-c]pyridine-2-yl)methyl)-2-(5-((1-(dibenzo[b,d]furan-2-yl)ethyl)amino)-3-methyl-2,6-dioxo-3,6-dihydropyrimidin-1(2H)-yl)acetamide] | < 6.00
14 | C[C@@H](Nc1cnc(N2CCCC2)n(CC(=O)NCc2cc3cnccc3[nH]2)c1=O)c1ccc2oc3ccccc3c2c1 [Compound 367, (R)—N-((1H-pyrrolo[3,2-c]pyridin-2-yl)methyl)-2-(5-((1-(dibenzo[b,d]furan-2-yl)ethyl)amino)-6-oxo-2-(pyrrolidin-1-yl)pyrimidin-1(6H)-yl)acetamide] | < 6.00
15 | C[C@@H](Nc1cnc(N2CC(F)C2)n(CC(=O)NCc2cc3cnccc3[nH]2)c1=O)c1ccc2oc3ccccc3c2c1 [Compound 368, (R)-N-((1H-pyrrolo[3,2-c]pyridin-2-yl)methyl)-2-(5-((1-(dibenzo[b,d]furan-2-yl)ethyl)-amino)-2-(3-fluoroazetidin-1-yl)-6-oxopyrimidin-1(6H)-yl)-acetamide] | < 6.00
16 | C[C@@H](Nc1cnc(N2CCC(O)C2)n(CC(=O)NCc2cc3cnccc3[nH]2)c1=O)c1ccc2oc3ccccc3c2c1 (stereo partly drawn) [Compound 369, N-((1H-pyrrolo[3,2-c]pyridin-2-yl)methyl)-2-(5-(((R)-1-(dibenzo[b,d]furan-2-yl)ethyl)-amino)-2-(3-hydroxypyrroli-din-1-yl)-6-oxopyrimidin-1(6H)-yl)acetamide] | 6.00 to 7.00
17 | C[C@@H](Nc1cnc(N2CCCC(O)C2)n(CC(=O)NCc2cc3cnccc3[nH]2)c1=O)c1ccc2oc3ccccc3c2c1 (stereo partly drawn) [Compound 370, N-((1H-pyrrolo[3,2-c]pyridin-2-yl)methyl)-2-(5-(((R)-1-(dibenzo[b,d]furan-2-yl)ethyl)-amino)-2-(3-hydroxypiperidin-1-yl)-6-oxopyrimidin-1(6H)-yl)acetamide] | 6.00 to 7.00
18 | C[C@@H](Nc1cnc(N2CC3CC3C2)n(CC(=O)NCc2cc3cnccc3[nH]2)c1=O)c1ccc2oc3ccccc3c2c1 (stereo partly drawn) [Compound 371, N-((1H-pyrrolo[3,2-c]pyridin-2-yl)methyl)-2-(2-(3-azabicyclo [3.1.0]hexan-3-yl)-5-(((R)-1-(dibenzo[b,d]furan-2-yl)ethyl)-amino)-6-oxopyrimidin-1(6H)-yl)acetamide] | < 6.00
19 | C[C@@H](Nc1cnc(-c2ccc(C3(F)COC3)cc2)n(CC(=O)NCc2cc3cnccc3[nH]2)c1=O)c1ccc2oc3ccccc3c2c1 [Compound 372, (R)—N-((1H-pyrrolo[3,2-c]pyridine-2-yl)methyl)-2-(5-((1-(dibenzo[b,d]furan-2-yl)ethyl)amino)-2-(4-(3-fluorooxetan-3-yl)phenyl)-6-oxopyrimidin-1(6H)-yl)acetamide] | > 7.00
20 | C[C@@H](Nc1cnc(N2CC3(CCC3)C2)n(CC(=O)NCc2cc3cnccc3[nH]2)c1=O)c1ccc2oc3ccccc3c2c1 [Compound 373, (R)-N-((1H-pyrrolo[3,2-c]pyridin-2-yl)methyl)-2-(5-((1-(dibenzo[b,d]furan-2-yl)ethyl)-amino)-6-oxo-2-(2-azaspiro [3.3]heptan-2-yl)pyrimidin-1(6H)-yl)acetamide] | < 6.00
21 | C[C@@H](Nc1cnc(N2CC3(C2)CC(F)(F)C3)n(CC(=O)NCc2cc3cnccc3[nH]2)c1=O)c1ccc2oc3ccccc3c2c1 [Compound 374, (R)-N-((1H-pyrrolo[3,2-c]pyridin-2-yl)methyl)-2-(5-((1-(dibenzo[b,d]furan-2-yl)ethyl)-amino)-2-(6,6-difluoro-2-aza-spiro[3.3]heptan-2-yl)-6-oxo-pyrimidin-1(6H)-yl)acetamide] | < 6.00
22 | C[C@@H](Nc1cnc(N2CCNCC2)n(CC(=O)NCc2cc3cnccc3[nH]2)c1=O)c1ccc2oc3ccccc3c2c1 [Compound 376, (R)—N-((1H-pyrrolo[3,2-c]pyridine-2-yl)methyl)-2-(5-((1-(dibenzo[b,d]furan-2-yl)ethyl)amino)-6-oxo-2-(piperazin-1-yl)pyrimidin-1(6H)-yl)acetamide] | > 7.00

— patent US20260184707A1, “PHARMACEUTICAL COMPOUNDS FOR THE TREATMENT OF COMPLEMENT MEDIATED DISORDERS” (ALEXION PHARMACEUTICALS, INC., priority 2022, published 2026)
